Test results: US3969521A, “Pharmaceutical compositions containing tetrahydroalstonine and method for treating circulation disorders” (Science Union et Cie, Societe Francaise de Recherche Medical, priority 1974, dated 1976)
“Also recorded” adds a separate entry of the source.

Tests used:
[1] = tested on: recovery of learned memories; assay: Recovery of learned memories after electroshock (aquatic maze crossing); assay type: in vivo, rat; conditions: for effect on the recovery of learned memory: rat, in vivo
Description: Effects of tetrahydroalstonine on the recovery of learned memories on rats.
Tetrahydroalstonine has been tested on lots of rats in order to determine how fast it allows the recovery of learned memories after supramaximal electroshock in comparision with Vincamine and Papaverine. These last compounds are known to be active on the circulation namely as vasodilating agents.
In this test, as described by C. Giurgea (J. Pharmacol. (Paris) 3 17 (1972)), the rats are submitted to a submaximal electroshock which causes a spatio-temporal desorientation. This syndrom is evidenced by the difficulties the tested animals encountered for crossing over a maze filled with cold water without any error, after they have been submitted to the electroshock. The rats have been previously trained to swimm through this maze and the training has been renewed four times for 2 days.
The electric shock was delivered by means of a Neurovar apparatus (ALVAR Electronics) the third day. 20 Minutes after the electro shock, each lot of rats is tested and the time for crossing over the maze is determined. Immediately after, the rats received the compound to be tested by intra oesophageal tubing. Each lot is then experienced four times, 1, 2, 3, and 4 hours after the electroshock.
The score of performances of each individual is recorded and every error during the crossing over noticed.
The compounds to be tested (papaverine, vincamine and tetrahydroalstonine) are given to the animals, suspended in an aqueous solution of carboxymethylcellulose and sorbitan monooleate.
Papaverine and vincamine were administered at dosis ranging from 1 to 20 mg/kg. Tetrahydroalstonine was administered at a dosis of 0.6 mg/kg, 6 mg/kg and 60 mg/kg.
A lot of rats received only the aqueous solvent under the same volume (0.5 ml/100 g animal) as controls.
Therein are reported for each lot of rats the number of errors and the average time for crossing over the maze during the 5 tests performed after the animals have been subjected to the electroshock.
The treatment has been given 20 mn after the electroshock, immediately
after the first crossing over

[2] = tested on: central nervous system; assay: Effects on the central nervous system; assay type: in vivo
[3] = tested on: analgetic effect of Morphine; assay: Analgetic effect of Morphine; conditions: in vivo
[4] = 10 mg/kg P.O., 20 minutes (before treatment)
[5] = 10 mg/kg P.O., 20 minutes after electroshock (before treatment)
[6] = 20 mg/kg P.O., 20 minutes (before treatment)
[7] = 20 mg/kg P.O., 20 minutes after electroshock (before treatment)

Row | SMILES | a = variation of average number of errors as regard as the controls [1, 4] | E = average number of errors [1, 5] | T = average time for crossing over [1, 5] | E = average number of errors ([1]; 10 mg/kg P.O., 60 minutes) | T = average time for crossing over ([1]; 10 mg/kg P.O., 60 minutes) | a = variation of average number of errors as regard as the controls ([1]; 10 mg/kg P.O., 60 minutes) | E = average number of errors ([1]; 10 mg/kg P.O., 120 minutes) | T = average time for crossing over ([1]; 10 mg/kg P.O., 120 minutes) | a = variation of average number of errors as regard as the controls ([1]; 10 mg/kg P.O., 120 minutes) | E = average number of errors ([1]; 10 mg/kg P.O., 180 minutes) | T = average time for crossing over ([1]; 10 mg/kg P.O., 180 minutes) | a = variation of average number of errors as regard as the controls ([1]; 10 mg/kg P.O., 180 minutes) | E = average number of errors ([1]; 10 mg/kg P.O., 240 minutes) | T = average time for crossing over ([1]; 10 mg/kg P.O., 240 minutes) | a = variation of average number of errors as regard as the controls ([1]; 10 mg/kg P.O., 240 minutes) | effect on the recovery of learned memory (onset) ([1]; 20 mg/kg) | a = variation of average number of errors as regard as the controls [1, 6] | E = average number of errors [1, 7] | T = average time for crossing over [1, 7] | E = average number of errors ([1]; 20 mg/kg P.O., 60 minutes) | other results
1 | CC[C@]12CCCN3CCc4c(n(c5ccccc45)[C@@](O)(C(=O)OC)C1)[C@@H]32 [Vincamine] | - | 10,8 | 135,6 seconds | 7,2 | 82,7 seconds | - | 4,6 | 44,1 seconds | - | 5,6 | 52,8 seconds | + | 4,3 | 38,6 seconds | - | delayed | + | 14,3 | 124,5 seconds | 7,1 | number of mistakes ([1]; 10 mg/kg): did not show any decrease in the number of mistakes; performances ([1]; 10 mg/kg, after 2 hours): slight improvement; start of the improving effect after the administration ([1]; 20 mg/kg): 40 min; start of the improving effect after the electroshock ([1]; 20 mg/kg): 60 mn; T = average time for crossing over ([1]; 20 mg/kg P.O., 60 minutes): 58,4 seconds; a = variation of average number of errors as regard as the controls ([1]; 20 mg/kg P.O., 60 minutes): -; E = average number of errors ([1]; 20 mg/kg P.O., 120 minutes): 5,2; T = average time for crossing over ([1]; 20 mg/kg P.O., 120 minutes): 38,2 seconds; a = variation of average number of errors as regard as the controls ([1]; 20 mg/kg P.O., 120 minutes): -; E = average number of errors ([1]; 20 mg/kg P.O., 180 minutes): 2,5; T = average time for crossing over ([1]; 20 mg/kg P.O., 180 minutes): 22,1 seconds; a = variation of average number of errors as regard as the controls ([1]; 20 mg/kg P.O., 180 minutes): -; b = statistical value (student's test), number of errors ([1]; 20 mg/kg P.O., 180 minutes): 0,0005; E = average number of errors ([1]; 20 mg/kg P.O., 240 minutes): 3,2; T = average time for crossing over ([1]; 20 mg/kg P.O., 240 minutes): 24,2 seconds; a = variation of average number of errors as regard as the controls ([1]; 20 mg/kg P.O., 240 minutes): -; b = statistical value (student's test), number of errors ([1]; 20 mg/kg P.O., 240 minutes): 0,025; number of mistakes ([1]; 20 mg/kg, 3 and 4 hours after the electroshock): significantly decreased; effect on the recovery of learned memory [1]: improving effect
2 | COC(=O)C1=CO[C@@H](C)[C@H]2CN3CCc4c([nH]c5ccccc45)[C@@H]3C[C@H]12 [Raubasine, reference compound] |  |  |  |  |  |  |  |  |  |  |  |  |  |  |  |  |  |  |  |  | effect on the central nervous system ([2]; 50 to 100 mg/kg perorally): merely a sedative; effect on the central nervous system ([2]; dosage not stated): merely endowed with sedative properties; effect on the analgetic effect of Morphine [3]: does not exert such effect; also recorded: does not increase the analgetic effects of morphine
3 | COc1ccc(Cc2nccc3cc(OC)c(OC)cc23)cc1OC [Papaverine] | + | 14,3 | 154,2 seconds | 7,3 | 75,5 seconds | - | 4,8 | 54,2 seconds | - | 4,7 | 49,0 seconds | - | 2,4 | 25,4 seconds | - | delayed | + | 14,0 | 150,7 seconds | 10,4 | time after which improvement in performance appeared statistically significant ([1]; 10 mg/kg): 240 mn; b = statistical value (student's test), number of errors ([1]; 10 mg/kg P.O., 240 minutes): 0,0005; time after which improvement in performance appeared statistically significant ([1]; 20 mg/kg): 180 mn; T = average time for crossing over ([1]; 20 mg/kg P.O., 60 minutes): 89,8 seconds; a = variation of average number of errors as regard as the controls ([1]; 20 mg/kg P.O., 60 minutes): +; E = average number of errors ([1]; 20 mg/kg P.O., 120 minutes): 5,6; T = average time for crossing over ([1]; 20 mg/kg P.O., 120 minutes): 53,4 seconds; a = variation of average number of errors as regard as the controls ([1]; 20 mg/kg P.O., 120 minutes): -; E = average number of errors ([1]; 20 mg/kg P.O., 180 minutes): 2,9; T = average time for crossing over ([1]; 20 mg/kg P.O., 180 minutes): 29,7 seconds; a = variation of average number of errors as regard as the controls ([1]; 20 mg/kg P.O., 180 minutes): -; b = statistical value (student's test), number of errors ([1]; 20 mg/kg P.O., 180 minutes): 0,005; E = average number of errors ([1]; 20 mg/kg P.O., 240 minutes): 3,0; T = average time for crossing over ([1]; 20 mg/kg P.O., 240 minutes): 32,8 seconds; a = variation of average number of errors as regard as the controls ([1]; 20 mg/kg P.O., 240 minutes): -; b = statistical value (student's test), number of errors ([1]; 20 mg/kg P.O., 240 minutes): 0,01; effect on the recovery of learned memory [1]: improving effect
